Experimental data as given in patent US10898567B2, “Synthetic long peptides (SLP) for therapeutic vaccination against Hepatitis B virus infection” (priority 2014, dated 2021).

System: PBMC derived from HBV-immune donors
Assay type: cell-based, human
Details: six HBV-immune donors; for positive IFNγ response (SI>3) in HBV-immune donors / IFNγ response in multiple HBV-immune donors: IFNγ-ELISpot; for average SI of the IFNγ-responses: PBMC pre-stimulated with 3 nmol/ml peptide for 72 hours; for IFNγ response in multiple HBV-immune donors: SI>3
Method: To detect antigen-specific IFNγ-producing human T cells, the PBMC were first pre-stimulated with 3 nmol/ml of the indicated peptide for 72 hours at 37° C. […] After stimulation of the PBMC, the coating antibody was aspirated from the plate, and washed 4 times with PBS. To block aspecific binding, 100 μl of IMDM containing 8% FCS was added to all wells and incubated at 37° C. for 1 hour. In the meantime, stimulated PBMC were harvested, centrifuged, resuspended in X-vivo 15 medium (Lonza) and counted. […] The medium in the wells of the PVDF plate was aspirated and 100 μl of each PBMC sample was added to the plate in quadruplicates. The plates were incubated at 37° C. overnight. The next day, the supernatant was discarded and plates are washed 6 times with PBS/Tween20 0.05%. […] Next, plates were washed 6 times using PBS/Tween20 0.05% and 1 μg/ml Extravidin-Alkaline phosphatase (ALP) (Sigma-Aldrich) was added to all wells (100 μl/well) in PBS with 1% FBS. The plates were incubated for 1 hour at RT. ALP substrate solution BCIP/NBT-plus (Mabtech) was prepared and 100 μl/well was added to all wells after the plates were washed 4 times with PBS/Tween20 0.05%. To terminate the colorimetric reaction (after 1-20 minutes), tap water was used to wash the plates extensively. After drying, the formed spots were measured on a Biosys Bioreader 5000.
To assess the relevance of the selected vaccine peptides for the clearance of a naturally occurring HBV infection, we tested the presence of T cell responses against the 13 selected HBV peptides in PBMC derived from six HBV-immune donors. After isolation of the PBMC, cells were stimulated with each of the 13 peptides and an IFNγ-ELISpot was performed to detect T cell responses.

Sequence | positive IFNγ response (SI>3) in HBV-immune donors | average SI of the IFNγ-responses | IFNγ response in multiple HBV-immune donors
ALPSPSPSAVPADHGAHLSLRGLPVCAFSSAGP [SLP26] | Responses were observed | 1.56 | 
MPLSYQHFRKLLLLDDGTEAGPLEEELPRL (HBV Polymerase aa 1 - 30 (SLP No. 1)) [SLP1] |  | 1.21 | 
HDSCSRQLYVSLMLLYKTYGWKLHLYSHPIVLGF (HBV Polymerase aa 481 - 514 (SLP No. 13)) [SLP13] | Responses were observed | 2.44 | induced responses in multiple donors
CAFSSAGPCALRFTSARRMETTVNAHQILPKVLHK [SLP27] | Responses were observed |  | 
DPASRDLVVNYVNTNVGLKIRQLLWFHISCLTFGR (HBV Core aa 107 - 141 (SLP No. 24)) [SLP24] | Responses were observed | 2.54 | induced responses in multiple donors
NLLSSNLSWLSLDVSAAFYHIPLHPAAMPHLLIGSSGL (HBV Polymerase aa 419 - 456 (SLP No. 10)) [SLP10] | Responses were observed | 2.40 | induced responses in multiple donors
YPALMPLYACIQAKQAFTFSPTYKAFLSKQYMNLYPVAR (HBV Polymerase aa 653 - 691 (SLP No. 18)) [SLP18] | Responses were observed | 1.86 | 
SPFLLAQFTSAICSVVRRAFPHCLAFSYMDDVVLGA (HBV Polymerase aa 524 - 559 (SLP No. 14)) [SLP14] | Responses were observed | 1.97 | 
VVNHYFQTRHYLHTLWKAGILYKRETTRSASFCGSPYSW (HBV Polymerase aa 139 - 177 (SLP No. 5)) [SLP5] | Responses were observed | 2.11 | 
SSWAFAKYLWEWASVRFSWLSLLVPFVQWFV (HBV large surface protein aa 328-358) [SLP34] | Responses were observed | 3.02 | induced responses in multiple donors
